Where a name gives a salt, the structure may show the parent alone.
Experiments:
[1] = First crossover study: absorption of phenylephrine, PE HCl alone vs Maxigesic PE (28 adult subjects); type: in vivo; conditions: human, 10 mg; phenylephrine in blood plasma, mean, oral tablets, n = 28 adult humans
[2] = Third cross-over study: Maxiclear PE 2.5 (two tablets) vs Sudafed PE (6 adult subjects); type: in vivo; conditions: human, oral, 10 mg; phenylephrine in plasma, mean, untransformed data, n = 6 adult humans

- Cmax [1]: 0.874 ng/mL
- Tmax [1]: 42 min
- Cmax [2]: 1.13 ng/mL
- Tmax [2]: 42 min
SMILES: CNC[C@H](O)c1cccc(O)c1 [10 mg phenylephrine hydrochloride, phenylephrine hydrochloride]

— US20170087104A1, “MEDICAMENT” (AFT Pharmaceuticals Ltd., priority 2013, published 2017)
